Here are results for two molecules from patent US20240124510A1, “Cyclic Glycoaminoacid Derivatives” (TFCHEM, priority 2021, published 2024).

Where “and” joins values, the source holds several entries; their conditions need not be identical. Identical values can stand only once.

For one experiment, the system named is human preadipocytes. The experiment is described as follows: Total lipid accumulation (AdipoRed staining) in preadipocytes/adipocytes in inflammatory condition. Type of experiment: cell-based. Particulars: AcMC + 100 nM, end of the culture. How it is done: (§1) Preadipocytes have been isolated from human female hypodermis (body mass index <30 kg/m2 and <45 years old). Preadipocytes have been cultured for 24 h in 100 μl of DMEM-10% Fetal Bovine Serum (FBS) in 96-well plates. Then cells were treated to induce their differentiation in a classical or an inflammatory environment for 13 days.
(§2) To induce the preadipocytes differentiation cells were incubated in a proadipogenic cocktail (PAC) including insulin, glucocorticoid, 3-isobutyl-1-methylxanthine (IBMX), and thiazolinedione in DMEM.
(§3) To induce a fibro-inflammatory environment, cells were treated with an activated human macrophage-conditioned medium (AcMC) prepared in RPMI medium. A treatment with Dexamethasone (DXM) at 100 nM was used as anti-inflammatory response control. At D0: preadipocytes have been treated in the following conditions: • “Undifferentiation”: DMEM+¼ RPMI medium • “Differentiation”: PAC+¼ RPMI medium • “AcMC” i.e. inflammatory condition: PAC+¼ AcMC • “AcMC+DXM”: PAC+[…] AcMC+anti-inflammatory DXM at 100 nM • “AcMc+compounds”: PAC+14 AcMC+compounds to be tested
(§4) All conditions have been performed in triplicate. The medium has been changed every 2 days for 13 days.
After 14 days of culture, preadipocytes have been fixed with 4% paraformaldehyde and then stained by AdipoRed™ at room temperature to reveal the intracellular lipid droplets. Quantification of lipid accumulation has been performed by fluorescence intensity measurements using the spectrophotometer Spark (TECAN).
Lipid accumulation and Lipid index were evaluated for each condition. Data are represented in percentage of proinflammatory control condition (AcMC condition).

In experiment [1] the test system is IL-6. The experiment is described as follows: Extracellular secretion of IL-6 by preadipocytes in inflammatory condition (ELISA). Type of experiment: cell-based, human. The protocol:
as §1, §2, §3, §4
(§5) At D14: during the last 24 h of culture, the medium has been replaced by DMEM/F12 medium in all conditions, to collect cells' secretions.
(§6) After 13 days, the 24 h culture media of the different conditions have been collected at the end of the treatment period. The concentrations of IL-6, procollagen I and MCP1 have been evaluated by ELISA assays using specific kits (for IL-6: DY206, DuoSet ELISA, R&D Systems; for Procollagen I: DY6220-05, DuoSet ELISA, R&D Systems; for MCP1: DY279-05 DuoSet ELISA, R&D Systems) according to the manufacture's recommendations. Values have been normalized to the cell number determined by DAPI staining.
Quantity of IL-6 secreted in medium was measured and was normalized by cell number in each culture condition. Data are represented in percentage of proinflammatory control condition (AcMC condition).

Experiment [2] deals with IL-6. The experiment is described as follows: IL-6 secretion in coculture of human aged fibroblasts and mature adipocytes (AM3D-FB2D, ELISA). Type of experiment: cell-based. Particulars: for secretion of IL-6 in percentage of the coculture control condition, Mean (%) / secretion of IL-6 in percentage of the coculture control condition, Values (%): 100 nM; for secretion of IL-6 in percentage of the coculture control condition, Values (%): individual replicates; for IL-6 secretion in percentage of the coculture control condition: anti-inflammatory reference item. From the text: In order to evaluate its effect on fibroblast matrix and its anti-inflammatory properties, the effect of compound 6 has been tested on an adipocytes-aged fibroblasts coculture model, mimicking the interactions between dermis and hypodermis in the skin and allowed to explore in parallel the biological effects of the products on two cellular targets.
• Experimental model: co-culture of human mature adipocytes cultured in 3D and human dermal fibroblasts cultured in 2D (AM3D-FB2D co-culture). This experimental model of AM3D-FB2D co-culture mimicked the interactions between dermis and hypodermis in the skin and allowed to explore in parallel the biological effects of the products on two cellular targets. • Donor characteristics: This study was performed on mature adipocytes and fibroblasts from two different donors (one donor for mature adipocytes and another donor for dermal fibroblasts). • Fibroblasts donor=person, BMI=28 kg/m^2 • Adipocytes donor=person, BMI=21.4 kg/m^2 • Treatment procedure: compound 6 was added to the co-culture medium daily for up to 6 days
Dermal fibroblasts were seeded in DMEM 10% FBS at 10000 cells/well. The day after, the adipocytes capsules of 50 μl were added in suspension above the fibroblasts and the medium was changed and replaced by a specific culture medium for the co-culture AM3D-FB2D. The formation of adipocytes capsules followed an internal standardized protocol. Briefly, the fully mature adipocytes were isolated from the hypodermis after digestion by collagenase. The isolated adipocytes were then washed with a wash buffer and encapsulated in a peptidic hydrogel to form 3D adipocytes capsules of 50 μl in size. Cells were incubated at 37° C. and 5% CO2 overnight for stabilization. Treatments were initiated at DO with a medium change at DO, D2, D3 and D5. The entire culture media of 24 h incubation was collected at D3 and D6, before being centrifugated and stored at −80° C. Each culture condition was done in triplicate.
The biochemical analyses on culture media were performed via ELISA using specific kits according to the manufacturer's recommendations: IL-6 (Duoset DY206, R&D Systems), and Hyaluronic Acid (HA) (Duoset, DY3614-05, R&D Systems and Procollagen I (Duoset, DY6220-05, R&D Systems) The results of HA and Procollagen I were normalized by fibroblasts cell number regarding the fact that these molecules were secreted mainly by fibroblasts. All the biochemical results were represented in percentage of the control condition.
To evaluate the effect of the compound 6 on inflammation, the extracellular concentrations of IL-6, that is secreted by the fibroblasts but mainly by the adipocytes, were measured at D3 and D6.

In a further experiment the test system is Collagen I fibers. Nature of the experiment: Quantity of Collagen 1 fibers produced by preadipocytes in inflammatory condition (immunofluorescence). Particulars: AcMC + 100 nM, normalized by cells number (DAPI). It counts as cell-based, human. The protocol: as §1, §2, §3
One month after fixation of preadipocytes cultivated in pro-inflammatory environment, cells were incubated with 3% Bovine Serum Albumin (BSA) for 30 min in order to block the non-specific sites, then with primary antibody anti-collagen 1 (Novusbio, NB600-408) over-night. After washes with PBS, cells were incubated for 30 min with 3% BSA and then with the secondary antibodies (Goat anti-rabbit alexa-fluor 488, ThermoFisher, A11008) and DAPI (for nuclei staining) for 1 h. After several washes, the acquisition and the quantification were performed with a fluorescent video-microscope. Briefly, the quantification was based on the detection and quantification of cell nuclei stained with DAPI, and the detection of collagen 1 staining. Collagen 1 fibers were detected and measured for their length, thickness and intensity. A Collagen 1 fibers quantity was calculated (Quantity=length*thickness*fluorescence intensity) and normalized by cells number (DAPI staining).
Collagen I fibers (fibrillar collagen I) quantity was quantified and the data were normalized by cell number (DAPI staining, quantification of nuclei number). Data are represented in percentage of proinflammatory control conditions (AcMC condition).

The subject of another experiment is MCP1. Nature of the experiment: Extracellular secretion of MCP1 by preadipocytes in inflammatory condition (ELISA). It counts as cell-based, human. The protocol:
as §1, §2, §3, §4, §5, §6
Quantity of MCP1 secreted in medium was measured and was normalized by cell number in each culture condition. Data are represented in percentage of proinflammatory control condition (AcMC condition).

For experiment [3], the system named is Normal human epidermal keratinocytes (NHEK). Nature of the experiment: Lipid peroxidation in NHEK under UV stimulation (C11-fluor probe, flow cytometry). It counts as cell-based. Particulars: 100 μM, irradiated UVB 300 mJ/cm^2 (+UVA 2.1 J/cm^2). How it is done:
Normal human epidermal keratinocytes were seeded in 48-well plates and cultured in culture medium for 24 hours and then in assay medium for a further 24 hours. The medium was then removed and replaced by assay medium containing or not (irradiated control) the test compounds or the reference (BHA—butylated hydroxyanisole, lipid peroxidation inhibitor—at 100 μM) and the cells were pre-incubated for 24 hours. After pre-incubation, the specific fluorescent probe for the measurement of lipid peroxides (C11-fluor) was added and the cells were incubated for 45 minutes. Then, the medium was removed and replaced by assay medium containing or not (irradiated control and test compound conditions) the reference and the cells were irradiated with UVB (+UVA)−300 mJ/cm^2 (+2.1 J/cm^2). The lamp used was a SOL500 Sun Simulator equipped with an H2 filter (Dr. Hbnle. AG). After irradiation, the medium was removed and replaced by assay medium containing or not (irradiated control) the test compounds or the reference and the cells were incubated for 30 minutes before flow cytometry analysis. A non-irradiated control condition was performed in parallel. All experimental conditions were performed in triplicate.
At the end of the incubation, in each well, the cells were trypsinized and transferred into specific tubes for the analysis of C11-fluor fluorescence intensity using a BD FACSVerse™ flow cytometer (acquisition of 2000 to 5000 events per tube). The C11-fluor fluorescent probe is a lipid analogue which integrates cell membranes. As the fluorescence intensity of this probe is decreased with oxidation, it is inversely proportional to the lipid peroxidation. In order to facilitate the result interpretation, the lipid peroxidation was expressed using the value “1/fluorescence intensity” in order to have a direct proportionality between the induction of lipid peroxidation and the values of “% of irradiated control”.
Results presented in Table 24 are expressed as fluorescence intensity and as […] of protection compared to the control.

[4] abbreviates: AcMC + 100 nM, normalized by cells number (DAPI).
[5] abbreviates: AcMC + 100 nM, normalized by cells number (DAPI), individual values.

Take `C[C@@H]1C[C@H]2[C@@H]3CCC4=CC(=O)C=C[C@]4(C)[C@@]3(F)[C@@H](O)C[C@]2(C)[C@@]1(O)C(=O)CO` [Dexamethasone, reference compound]: the “Total Lipid Accumulation (Adipored staining), Mean” value with human preadipocytes is given as 220.6 % of AcMC condition. Besides, the “Total Lipid Accumulation (Adipored staining), Values” in the experiment with human preadipocytes (individual values) is 213.8 % of AcMC condition and 229.4 % of AcMC condition and 218.6 % of AcMC condition. Moreover, the “IL-6 secretion, Mean” value in the experiment with IL-6 [1] (setting [4]) was 22.8 % of AcMC condition. In the experiment with IL-6 [1] (setting [5]), the “IL-6 secretion, Values” is 21.9 % of AcMC condition and 21.8 % of AcMC condition and 24.5 % of AcMC condition. Moreover, the “IL-6 secreted, normalized by cell number, in % of AcMC condition” value in the experiment on IL-6 [1] (preadipocytes/adipocytes, AcMC, 100 nM) was 22.8%. Besides, the entries for the “secretion of IL-6 in percentage of the coculture control condition, Mean (%)” value with IL-6 [2] (D3) and in the experiment on IL-6 [2] (D6) were 34% and 41%, respectively. Besides, the “secretion of IL-6 in percentage of the coculture control condition, Values (%)” value was 22% and 48% and 31% with IL-6 [2] (D3); 39% and 24% and 61% in the experiment on IL-6 [2] (D6). In addition, the “IL-6 secretion in percentage of the coculture control condition” value in the experiment on IL-6 [2] (3 days of treatment) was determined as 34%; with IL-6 [2] (6 days of treatment), 41%. In the experiment with Collagen I fibers, the “Collagen I fibers quantity, Mean (%)” value is recorded as 391 % of AcMC condition. In addition, in the experiment with Collagen I fibers (individual values), the “Collagen I fibers quantity, Values (%)” value is 397.3 % of AcMC condition and 390.0 % of AcMC condition and 384.5 % of AcMC condition. Further, the “MCP1 secretion, Mean (%)” value in the experiment with MCP1 (setting [4]) was 95 % of AcMC condition. The “MCP1 secretion, Values (%)” value in the experiment on MCP1 (setting [5]) is 82.4 % of AcMC condition and 106.8 % of AcMC condition and 97.2 % of AcMC condition. Moreover, the “Effect on the MCP1 secretion” value with MCP1 (AcMC, DXM at 100 nM) is “no effect”.
Regarding `COc1ccc(O)c(C(C)(C)C)c1` [BHA, Butylated hydroxyanisole, reference compound], in experiment [3], the “% Irradiated control (lipid peroxidation)” value is on record as 31%, the “% Protection (lipid peroxidation)” value turned out to be 75% and the “C11-fluor 1/GMFI Mean (AU)” value worked out at 2.7E−04 AU. Also, in experiment [3] (individual replicates), the “C11-fluor 1/GMFI (AU)” value is 1.90E−04 AU and 2.74E−04 AU and 3.37E−04 AU; the “C11-fluor GMFI (AU)” value is 5266 AU and 3653 AU and 2965 AU.
